From PubChem BioAssay (NCI)
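Five concentrations, 48 hours, 96-well plates. TGI is the concentration that stops growth completely.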

Experiments:
Test in all cases: NCI anticancer screen, dose series, 48 h
ACHN renal = tested on: ACHN renal
EKVX NSCLC = tested on: EKVX NSCLC
HCT-116 colon = tested on: HCT-116 colon
HOP-62 NSCLC = tested on: HOP-62 NSCLC
HS 578T breast = tested on: HS 578T breast
HT29 colon = tested on: HT29 colon
MALME-3M melanoma = tested on: MALME-3M melanoma
NCI-H460 lung = tested on: NCI-H460 lung
RPMI-8226 leukemia = tested on: RPMI-8226 leukemia
SK-MEL-2 melanoma = tested on: SK-MEL-2 melanoma
SK-MEL-5 melanoma = tested on: SK-MEL-5 melanoma
SNB-75 CNS = tested on: SNB-75 CNS
SR leukemia = tested on: SR leukemia
TK-10 renal = tested on: TK-10 renal
UACC-257 melanoma = tested on: UACC-257 melanoma
HCT-15 colon = tested on: HCT-15 colon
NCI/ADR-RES ovarian = tested on: NCI/ADR-RES ovarian
OVCAR-3 ovarian = tested on: OVCAR-3 ovarian
OVCAR-4 ovarian = tested on: OVCAR-4 ovarian
SF-539 CNS = tested on: SF-539 CNS

## CC(NC(=O)OC(C)(C)C)C(=O)NC(Cc1ccccc1)C(=O)NCC(=O)Oc1c(Cl)c(Cl)c(Cl)c(Cl)c1Cl (stereo unspecified)
ACHN renal
  TGI: 67.6 µM
EKVX NSCLC
  TGI: 48.7 µM
HCT-116 colon
  TGI: 43.9 µM
HOP-62 NSCLC
  TGI: 37.4 µM
HS 578T breast
  TGI: > 100 µM
HT29 colon
  TGI: 73.2 µM
MALME-3M melanoma
  TGI: 49.2 µM
NCI-H460 lung
  TGI: 63.3 µM
RPMI-8226 leukemia
  TGI: 54.9 µM
SK-MEL-2 melanoma
  TGI: 73.1 µM
SK-MEL-5 melanoma
  TGI: 27.4 µM
SNB-75 CNS
  TGI: > 100 µM
SR leukemia
  TGI: 64.7 µM
TK-10 renal
  TGI: 71.5 µM
UACC-257 melanoma
  TGI: 54.5 µM

## CC(=O)O[C@H]1C(=O)[C@@]2(C)C(C(OC(=O)c3ccccc3)[C@]3(O)CC(OC(=O)C(O)C(NC(=O)c4ccccc4)c4cccc(Cl)c4)C(C)=C1C3(C)C)[C@]1(OC(C)=O)CO[C@@H]1C[C@@H]2O (stereo partly specified)
ACHN renal
  TGI: > 10 µM
EKVX NSCLC
  TGI: > 10 µM
HCT-116 colon
  TGI: > 10 µM
HCT-15 colon
  TGI: > 10 µM
HOP-62 NSCLC
  TGI: > 10 µM
HT29 colon
  TGI: > 10 µM
MALME-3M melanoma
  TGI: > 10 µM
NCI-H460 lung
  TGI: > 10 µM
NCI/ADR-RES ovarian
  TGI: > 10 µM
OVCAR-3 ovarian
  TGI: > 10 µM
OVCAR-4 ovarian
  TGI: > 10 µM
RPMI-8226 leukemia
  TGI: 9.49 µM
SF-539 CNS
  TGI: 9.73 µM
SK-MEL-2 melanoma
  TGI: > 10 µM
SK-MEL-5 melanoma
  TGI: > 10 µM
SNB-75 CNS
  TGI: > 10 µM
SR leukemia
  TGI: 6.72 µM
TK-10 renal
  TGI: > 10 µM
UACC-257 melanoma
  TGI: > 10 µM

## CSc1nc(Br)nc2ncn(C3CC(Oc4ccc(C)cc4)C(COc4ccc(C)cc4)O3)c12 (stereo unspecified)
ACHN renal
  TGI: > 100 µM
EKVX NSCLC
  TGI: > 100 µM
HCT-116 colon
  TGI: > 100 µM
HCT-15 colon
  TGI: > 100 µM
HOP-62 NSCLC
  TGI: > 100 µM
HS 578T breast
  TGI: 63.5 µM
HT29 colon
  TGI: > 100 µM
MALME-3M melanoma
  TGI: > 100 µM
NCI-H460 lung
  TGI: > 100 µM
NCI/ADR-RES ovarian
  TGI: > 100 µM
OVCAR-3 ovarian
  TGI: > 100 µM
OVCAR-4 ovarian
  TGI: > 100 µM
RPMI-8226 leukemia
  TGI: > 100 µM
SF-539 CNS
  TGI: > 100 µM
SK-MEL-2 melanoma
  TGI: > 100 µM
SK-MEL-5 melanoma
  TGI: > 100 µM
SNB-75 CNS
  TGI: > 100 µM
TK-10 renal
  TGI: > 100 µM
UACC-257 melanoma
  TGI: > 100 µM

## O=C1OCCC[C@H]2O[C@@H](COCc3ccccc3)C[C@@H]12
ACHN renal
  TGI: > 100 µM
HCT-116 colon
  TGI: > 100 µM
HCT-15 colon
  TGI: > 100 µM
HOP-62 NSCLC
  TGI: > 100 µM
HS 578T breast
  TGI: > 100 µM
HT29 colon
  TGI: > 100 µM
NCI-H460 lung
  TGI: > 100 µM
NCI/ADR-RES ovarian
  TGI: > 100 µM
OVCAR-3 ovarian
  TGI: > 100 µM
OVCAR-4 ovarian
  TGI: > 100 µM
RPMI-8226 leukemia
  TGI: > 100 µM
SF-539 CNS
  TGI: > 100 µM
SK-MEL-2 melanoma
  TGI: > 100 µM
SK-MEL-5 melanoma
  TGI: > 100 µM
SNB-75 CNS
  TGI: > 100 µM
SR leukemia
  TGI: > 100 µM
TK-10 renal
  TGI: > 100 µM
UACC-257 melanoma
  TGI: > 100 µM

## Cn1cnc2c1c(=O)n(CCNCCO)c(=O)n2C
ACHN renal
  TGI: > 100 µM
EKVX NSCLC
  TGI: > 100 µM
HCT-116 colon
  TGI: > 100 µM
HCT-15 colon
  TGI: > 100 µM
HOP-62 NSCLC
  TGI: > 100 µM
HS 578T breast
  TGI: > 100 µM
HT29 colon
  TGI: > 100 µM
MALME-3M melanoma
  TGI: > 100 µM
NCI-H460 lung
  TGI: > 100 µM
NCI/ADR-RES ovarian
  TGI: > 100 µM
OVCAR-3 ovarian
  TGI: > 100 µM
OVCAR-4 ovarian
  TGI: > 100 µM
RPMI-8226 leukemia
  TGI: > 100 µM
SF-539 CNS
  TGI: > 100 µM
SK-MEL-2 melanoma
  TGI: > 100 µM
SK-MEL-5 melanoma
  TGI: > 100 µM
SNB-75 CNS
  TGI: > 100 µM
TK-10 renal
  TGI: > 100 µM
UACC-257 melanoma
  TGI: > 100 µM

## N#CC1=C(N)OC(c2cccc([N+](=O)[O-])c2)C1(C#N)C#N (stereo unspecified)
ACHN renal
  TGI: 33.2 µM
EKVX NSCLC
  TGI: 64.6 µM
HCT-116 colon
  TGI: 28.5 µM
HCT-15 colon
  TGI: 34.3 µM
HOP-62 NSCLC
  TGI: 57 µM
HS 578T breast
  TGI: > 100 µM
HT29 colon
  TGI: 37.2 µM
MALME-3M melanoma
  TGI: 49.3 µM
NCI/ADR-RES ovarian
  TGI: > 100 µM
RPMI-8226 leukemia
  TGI: 47 µM
SF-539 CNS
  TGI: 42.5 µM
SK-MEL-2 melanoma
  TGI: 40.4 µM
SK-MEL-5 melanoma
  TGI: 31.8 µM
SNB-75 CNS
  TGI: 24.7 µM
TK-10 renal
  TGI: 33.8 µM
UACC-257 melanoma
  TGI: 31.3 µM

## Cc1ccc(S(=O)(=O)Oc2nc3nc4ccccc4nc3nc2OS(=O)(=O)c2ccc(C)cc2)cc1
ACHN renal
  TGI: > 100 µM
EKVX NSCLC
  TGI: > 100 µM
HCT-116 colon
  TGI: > 100 µM
HCT-15 colon
  TGI: > 100 µM
HS 578T breast
  TGI: > 100 µM
HT29 colon
  TGI: > 100 µM
MALME-3M melanoma
  TGI: > 100 µM
NCI-H460 lung
  TGI: > 100 µM
NCI/ADR-RES ovarian
  TGI: > 100 µM
OVCAR-3 ovarian
  TGI: > 100 µM
RPMI-8226 leukemia
  TGI: > 100 µM
SF-539 CNS
  TGI: > 100 µM
SK-MEL-2 melanoma
  TGI: > 100 µM
SK-MEL-5 melanoma
  TGI: > 100 µM
SNB-75 CNS
  TGI: > 100 µM
TK-10 renal
  TGI: > 100 µM
UACC-257 melanoma
  TGI: > 100 µM

## CCCCCCC1CC(=O)C1(Cl)Cl (stereo unspecified)
ACHN renal
  TGI: 35.8 µM
EKVX NSCLC
  TGI: > 100 µM
HCT-116 colon
  TGI: 30.4 µM
HCT-15 colon
  TGI: 99.6 µM
HOP-62 NSCLC
  TGI: > 100 µM
HS 578T breast
  TGI: > 100 µM
HT29 colon
  TGI: 66.8 µM
MALME-3M melanoma
  TGI: 38.8 µM
NCI/ADR-RES ovarian
  TGI: > 100 µM
OVCAR-4 ovarian
  TGI: > 100 µM
RPMI-8226 leukemia
  TGI: 2.48 µM
SF-539 CNS
  TGI: > 100 µM
SK-MEL-2 melanoma
  TGI: 68.3 µM
SK-MEL-5 melanoma
  TGI: 31.2 µM
SNB-75 CNS
  TGI: 36 µM
TK-10 renal
  TGI: > 100 µM
UACC-257 melanoma
  TGI: 41.1 µM

## COC(=O)C(/C(=N/N)C(=O)Nc1cccc(O)c1)c1nc2ccccc2[nH]c1=O (stereo unspecified)
ACHN renal
  TGI: > 100 µM
EKVX NSCLC
  TGI: > 100 µM
HCT-116 colon
  TGI: > 100 µM
HCT-15 colon
  TGI: > 100 µM
HOP-62 NSCLC
  TGI: > 100 µM
HS 578T breast
  TGI: > 100 µM
HT29 colon
  TGI: > 100 µM
NCI-H460 lung
  TGI: > 100 µM
NCI/ADR-RES ovarian
  TGI: > 100 µM
OVCAR-3 ovarian
  TGI: > 100 µM
OVCAR-4 ovarian
  TGI: > 100 µM
SF-539 CNS
  TGI: > 100 µM
SK-MEL-2 melanoma
  TGI: > 100 µM
SK-MEL-5 melanoma
  TGI: > 100 µM
SNB-75 CNS
  TGI: > 100 µM
SR leukemia
  TGI: > 100 µM
TK-10 renal
  TGI: > 100 µM
UACC-257 melanoma
  TGI: > 100 µM

## COc1cc2c(cc1OC)C(=O)/C(=C/c1cc(Cl)cc(Cl)c1)C2
ACHN renal
  TGI: > 100 µM
EKVX NSCLC
  TGI: > 100 µM
HCT-116 colon
  TGI: > 100 µM
HCT-15 colon
  TGI: > 100 µM
HOP-62 NSCLC
  TGI: > 100 µM
HS 578T breast
  TGI: > 100 µM
HT29 colon
  TGI: > 100 µM
MALME-3M melanoma
  TGI: > 59.7 µM
NCI-H460 lung
  TGI: > 100 µM
NCI/ADR-RES ovarian
  TGI: 10.4 µM
OVCAR-3 ovarian
  TGI: > 100 µM
OVCAR-4 ovarian
  TGI: 98.1 µM
RPMI-8226 leukemia
  TGI: > 100 µM
SF-539 CNS
  TGI: 9.94 µM
SK-MEL-2 melanoma
  TGI: > 95 µM
SK-MEL-5 melanoma
  TGI: > 24.1 µM
TK-10 renal
  TGI: > 100 µM
UACC-257 melanoma
  TGI: > 100 µM
